# Test results taken from US9908880B2, “Substituted imidazoquinolines” (4SC AG, priority 2008, dated 2018).
# How the values were obtained:
# [1] = tested on: Renca LacZ tumor cell lung metastases; test: Renca lung metastasis model
# Protocol: (§1) In particular, female Balb/c mice (n=10) were treated for 4 consecutive days starting day 1 or day 8 after Renca LacZ tumor cell injection, respectively. The compounds were applied in 20% PEG, ODNs in 0.9% NaCl as indicated. Lungs were excised 25 days after tumor cell injection.
# as §1, with “compounds (small molecules (SMOLs))” for “compounds”
# Abstract 3552, Proc Am Cancer Res 48, 2007.
# In particular, female Balb/c mice (n=10) were treated for 4 consecutive days starting day 1 or day 8 after Renca LacZ tumor cell injection, respectively. The SMOLs were applied in 20% PEG, the oligonucleotides in 0.9% NaCl as indicated. Lungs were excised 25 days after tumor cell injection (see FIG. 4A). Further, female Balb/c mice (n=5) were treated for 4 consecutive days as indicated. The SMOLs were applied in 20% PEG, oligonucleotides in 0.9% NaCl. At day 4 of treatment, blood was collected via orbital plexus and spleens were excised. Subsequently, mRNA was isolated for expression analysis via qPCR. Data were normalized to vehicle control (mean set to 1). Statistical evaluation was performed via Mann-Whitney test (see FIG. 4B). […]
# [2] = tested on: superficial basal cell carcinomas; settings: marketed 5% cream (Aldara), topical; cited from earlier work
# PCIR-1 cells = test: Cytokine mRNA induction in PCIR-1 human cancer cell line (TaqMan PCR); format: cell-based; settings: for induction of IP-10: after 15 h
# Protocol: Expression of IL8 mRNA was measured with TaqMan PCR after 16 hours incubation of cells with H2006, LPS or Resiquimod alone and in combination with cloroquine.
# Cellular assays using a human cancer cell line (PCIR-1) or human PBMC fractions to test compounds for activating TLR7 are established.
# Specificity for TLR7 and 9 was checked by adding chloroquine, which abrogates signaling through endosomal TLRs. The PCIR-1 system is suited for measuring the interferone-linked cytokine IP10 by a bead-based assay in the 384-well format.
# TLR mRNA Expression in PCIR-1 (TaqMan PCR Analysis)
# Also response to poly I-C double-stranded RNA (TLR 3 ago); 40-fold induction of IP-10 after 15 h) and MALP-2 (TLR 2/6 hetero-dimer ago, 100-fold induction of IP-10 after 15 h) is detected.
# In contrast TLR4 signaling by LPS is not affected (FIG. 1).
compound,measurement,setting,value
"CCc1nc2c(N)nc3ccccc3c2n1CCCCN(C(C)=O)C1CCOC1C (stereo not drawn) [Example III, 3-{acetyl[4-(4-amino-2-ethyl-1H-imidazo[4,5-c]quinolin-1-yl)butyl]amino}-2,5-anhydro-1,3,4-trideoxypentitol]",anti-metastatic effect (clearance of the lungs),"[1]; short treatment (d1-4), FIG. 5",strong anti-metastatic effect with virtually complete clearance of the lungs
"CC(C)Cn1cnc2c(N)nc3ccccc3c21 [Imiquimod, imiquimod]",5 year clearance of superficial basal cell carcinomas,[2],approx 80%
CCN(CC)CCCC(C)Nc1ccnc2cc(Cl)ccc12 (stereo not drawn) [chloroquine],signaling via TLR7 and TLR9 on addition of chloroquine,"PCIR-1 cells; FIG. 1, IL8 mRNA after 16 hours",completely blocked
"Nc1nc2c(sc(=O)n2[C@@H]2O[C@H](CO)[C@@H](O)[C@H]2O)c(=O)[nH]1 [isatoribine, 7-thia-8-oxoguanosine]",emergence of lung metastases,[1]; murine Renca lung metastasis model,virtually completely suppressed
MALP-2,induction of IP-10,PCIR-1 cells,100 fold
poly I-C,induction of IP-10,PCIR-1 cells,40 fold
